The record followed here is patent US10072011B2, “Substituted bridged urea analogs as sirtuin modulators” (GlaxoSmithKline Intellectual Property (No.2) Limited, priority 2014, dated 2018).

Read-outs that look alike come from different tables or passages of the source.

The target in this experiment is T1, SIRT1 (Homo sapiens, UniProt Q96EB6).
T1 sequence (Q96EB6 1-747): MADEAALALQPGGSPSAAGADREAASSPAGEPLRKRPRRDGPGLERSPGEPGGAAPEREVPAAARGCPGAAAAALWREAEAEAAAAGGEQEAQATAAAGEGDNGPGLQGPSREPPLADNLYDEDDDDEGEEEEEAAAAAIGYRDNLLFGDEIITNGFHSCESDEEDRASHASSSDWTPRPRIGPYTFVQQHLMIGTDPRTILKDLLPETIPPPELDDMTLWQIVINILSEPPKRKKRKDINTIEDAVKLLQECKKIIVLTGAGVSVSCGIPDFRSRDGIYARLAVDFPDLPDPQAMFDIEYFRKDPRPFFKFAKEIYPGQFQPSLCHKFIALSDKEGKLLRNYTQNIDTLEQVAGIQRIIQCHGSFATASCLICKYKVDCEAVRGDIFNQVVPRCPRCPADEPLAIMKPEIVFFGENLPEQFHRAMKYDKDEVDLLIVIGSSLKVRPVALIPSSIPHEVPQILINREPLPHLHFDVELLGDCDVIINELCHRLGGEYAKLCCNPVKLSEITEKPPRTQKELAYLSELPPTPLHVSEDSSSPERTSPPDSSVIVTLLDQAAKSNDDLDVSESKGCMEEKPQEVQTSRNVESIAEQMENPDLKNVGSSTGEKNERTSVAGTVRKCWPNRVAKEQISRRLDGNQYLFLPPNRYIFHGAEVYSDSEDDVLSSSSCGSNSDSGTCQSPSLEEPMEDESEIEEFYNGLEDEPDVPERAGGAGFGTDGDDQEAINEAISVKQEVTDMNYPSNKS
Description: Trp mass spectrometry assay of SIRT1 activation (Ac-R-H-K-K(Ac)-W-NH2 peptide). The settings on record: for Emax: 25 min, read-out: TRP MAX RESP (percent maximum fold activation). The format is biochemical. The method in brief:
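N-terminal His-tagged human SIRT1, expressed in BL21(DE3) and purified, was incubated 25 min with an acetylated Trp peptide and NAD plus test compound at varying concentrations, then quenched with formic acid. OAADPR or deacetylated peptide was quantified by mass spectrometry versus compound-free control; EC1.5 is the concentration giving 50% activity increase, with percent maximum activation.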

[1] abbreviates: Trp peptide 0.5 μM, 120 μM βNAD+, 10 nM SIRT1, 25 min at 25° C., relative to control (100%).
The mark [2] stands for this setting: Trp peptide 0.5 μM, 120 μM βNAD+, 10 nM SIRT1, 25 min at 25° C.

Turning to `Cc1nc(NC(=O)N2c3nc(C(=O)NCC4CC4)ccc3N3CC[C@H]2C3)ccc1F` [Example 112, (4S)—N7-(cyclopropylmethyl)-N5-(5-fluoro-6-methylpyridin-2-yl)-3,4-dihydro-1,4-methanopyrido[2,3-b][1,4]diazepine-5,7(2H)-dicarboxamide], the Emax under setting [1] is greater than 150%. Besides, under setting [2], the “TRP Activity (EC1.5, concentration of test compound that results in 150% activation of SIRT1)” value is listed as “A (EC1.5<1 μM)”.
The matching figures for `COc1cc(NC(=O)N2c3nc(C(=O)NCC4CC4)ccc3N3CC[C@H]2C3)ncn1` [Example 113, (4S)—N7-(cyclopropylmethyl)-N5-(6-methoxypyrimidin-4-yl)-3,4-dihydro-1,4-methanopyrido[2,3-b][1,4]diazepine-5,7(2H)-dicarboxamide]: greater than 150% and “B (EC1.5 1-25 μM)”.
The matching figures for `Cc1ncc(-c2ccnc(NC(=O)N3c4nc(C(=O)NCC5CC5)ccc4N4CC[C@H]3C4)c2)o1` [Example 114, (4S)—N7-(cyclopropylmethyl)-N5-(4-(2-methyloxazol-5-yl)pyridin-2-yl)-3,4-dihydro-1,4-methanopyrido[2,3-b][1,4]diazepine-5,7(2H)-dicarboxamide]: greater than 150% and “B (EC1.5 1-25 μM)”.
Take `Cc1ncc(-c2ccnc(NC(=O)N3c4nc(C(=O)NCC(F)(F)F)ccc4N4CC[C@H]3C4)c2)o1` [Example 115, (4S)—N5-(4-(2-methyloxazol-5-yl)pyridin-2-yl)-N7-(2,2,2-trifluoroethyl)-3,4-dihydro-1,4-methanopyrido[2,3-b][1,4]diazepine-5,7(2H)-dicarboxamide]: the Emax under setting [1] was greater than 150%. For the same compound, the “TRP Activity (EC1.5, concentration of test compound that results in 150% activation of SIRT1)” value under setting [2] is on record as “A (EC1.5<1 μM)”.
For the compound `O=C(NCC(F)F)c1ccc2c(n1)N(C(=O)Nc1ccccn1)[C@H]1CCN2C1` [Example 116, (4S)—N7-(2,2-difluoroethyl)-N5-(pyridin-2-yl)-3,4-dihydro-1,4-methanopyrido[2,3-b][1,4]diazepine-5,7(2H)-dicarboxamide], the Emax was greater than 150%. Under setting [2], the “TRP Activity (EC1.5, concentration of test compound that results in 150% activation of SIRT1)” value is “A (EC1.5<1 μM)”.
For the compound `O=C(NCC(F)(F)CO)c1ccc2c(n1)N(C(=O)Nc1ccccn1)[C@H]1CCN2C1` [Example 117, (4S)—N7-(2,2-difluoro-3-hydroxypropyl)-N5-(pyridin-2-yl)-3,4-dihydro-1,4-methanopyrido[2,3-b][1,4]diazepine-5,7(2H)-dicarboxamide], under setting [1], the Emax is greater than 150%. Also, the “TRP Activity (EC1.5, concentration of test compound that results in 150% activation of SIRT1)” value under setting [2] is reported as “A (EC1.5<1 μM)”.
The matching figures for `O=C(NCC(F)(F)F)c1ccc2c(n1)N(C(=O)Nc1cnc(OC[C@@H](O)CO)cn1)[C@H]1CCN2C1` [Example 118, (4S)—N5-(5-((S)-2,3-dihydroxypropoxy)pyrazin-2-yl)-N7-(2,2,2-trifluoroethyl)-3,4-dihydro-1,4-methanopyrido[2,3-b][1,4]diazepine-5,7(2H)-dicarboxamide]: greater than 150% and “B (EC1.5 1-25 μM)”.
The matching figures for `Cn1cnc(NC(=O)N2c3nc(C(=O)NCC(F)(F)F)ccc3N3CC[C@H]2C3)cc1=O` [Example 120, (4S)—N5-(1-methyl-6-oxo-1,6-dihydropyrimidin-4-yl)-N7-(2,2,2-trifluoroethyl)-3,4-dihydro-1,4-methanopyrido[2,3-b][1,4]diazepine-5,7(2H)-dicarboxamide]: greater than 150% and “B (EC1.5 1-25 μM)”.
On to `Cn1nccc(NC(=O)N2c3nc(C(=O)NCC(F)(F)F)ccc3N3CC[C@H]2C3)c1=O` [Example 121, (4S)—N5-(2-methyl-3-oxo-2,3-dihydropyridazin-4-yl)-N7-(2,2,2-trifluoroethyl)-3,4-dihydro-1,4-methanopyrido[2,3-b][1,4]diazepine-5,7(2H)-dicarboxamide], for which the Emax was greater than 150%. The “TRP Activity (EC1.5, concentration of test compound that results in 150% activation of SIRT1)” value under setting [2] is reported as “A (EC1.5<1 μM)”.
On to `C[C@@H](NC(=O)c1ccc2c(n1)N(C(=O)Nc1ccnn(C)c1=O)[C@H]1CCN2C1)C(F)(F)F` [Example 122, (4S)—N5-(2-methyl-3-oxo-2,3-dihydropyridazin-4-yl)-N7-((R)-1,1,1-trifluoropropan-2-yl)-3,4-dihydro-1,4-methanopyrido[2,3-b][1,4]diazepine-5,7(2H)-dicarboxamide], for which the Emax under setting [1] was greater than 150%. The “TRP Activity (EC1.5, concentration of test compound that results in 150% activation of SIRT1)” value under setting [2] was “A (EC1.5<1 μM)”.
Taken in the same sequence, the figures for `Cc1ncc(-c2ccnc(NC(=O)N3c4nc(C(=O)NC5CC5)ccc4N4CC[C@H]3C4)c2)o1` [Example 123, (4S)—N7-cyclopropyl-N5-(4-(2-methyloxazol-5-yl)pyridin-2-yl)-3,4-dihydro-1,4-methanopyrido[2,3-b][1,4]diazepine-5,7(2H)-dicarboxamide] were greater than 150% and “B (EC1.5 1-25 μM)”.
`O=C(NCCC(F)(F)F)c1ccc2c(n1)N(C(=O)Nc1ccccn1)[C@H]1CCN2C1` [Example 124, (4S)—N5-(pyridin-2-yl)-N7-(3,3,3-trifluoropropyl)-3,4-dihydro-1,4-methanopyrido[2,3-b][1,4]diazepine-5,7(2H)-dicarboxamide]: the Emax under setting [1] was greater than 150%. The “TRP Activity (EC1.5, concentration of test compound that results in 150% activation of SIRT1)” value under setting [2] was “A (EC1.5<1 μM)”.
In the case of `Cc1ncc(-c2ccnc(NC(=O)N3c4nc(C(=O)N[C@@H](C)C(F)(F)F)ccc4N4CC[C@H]3C4)c2)o1` [Example 126, (4S)—N5-(4-(2-methyloxazol-5-yl)pyridin-2-yl)-N7-((S)-1,1,1-trifluoropropan-2-yl)-3,4-dihydro-1,4-methanopyrido[2,3-b][1,4]diazepine-5,7(2H)-dicarboxamide], the Emax under setting [1] was greater than 150%. Also, the “TRP Activity (EC1.5, concentration of test compound that results in 150% activation of SIRT1)” value under setting [2] is “B (EC1.5 1-25 μM)”.
Taken in the same sequence, the figures for `C[C@H](NC(=O)c1ccc2c(n1)N(C(=O)Nc1cc(-c3cnco3)ccn1)[C@H]1CCN2C1)C(F)(F)F` [Example 127, (4S)—N5-(4-(oxazol-5-yl)pyridin-2-yl)-N7-((S)-1,1,1-trifluoropropan-2-yl)-3,4-dihydro-1,4-methanopyrido[2,3-b][1,4]diazepine-5,7(2H)-dicarboxamide] were greater than 150% and “B (EC1.5 1-25 μM)”.
`Cc1ncc(-c2ccnc(NC(=O)N3c4nc(C(=O)N[C@H](C)C(F)(F)F)ccc4N4CC[C@H]3C4)c2)o1` [Example 128, (4S)—N5-(4-(2-methyloxazol-5-yl)pyridin-2-yl)-N7-((R)-1,1,1-trifluoropropan-2-yl)-3,4-dihydro-1,4-methanopyrido[2,3-b][1,4]diazepine-5,7(2H)-dicarboxamide]: the Emax under setting [1] was greater than 150%. Under setting [2], the “TRP Activity (EC1.5, concentration of test compound that results in 150% activation of SIRT1)” value is on record as “A (EC1.5<1 μM)”.
As for `C[C@@H](NC(=O)c1ccc2c(n1)N(C(=O)Nc1ccc(F)cn1)[C@H]1CCN2C1)C(F)(F)F` [Example 129, (4S)—N5-(5-fluoropyridin-2-yl)-N7-((R)-1,1,1-trifluoropropan-2-yl)-3,4-dihydro-1,4-methanopyrido[2,3-b][1,4]diazepine-5,7(2H)-dicarboxamide], under setting [1], the Emax was greater than 150%. Moreover, the “TRP Activity (EC1.5, concentration of test compound that results in 150% activation of SIRT1)” value under setting [2] is given as “A (EC1.5<1 μM)”.
The matching figures for `C[C@@H](NC(=O)c1ccc2c(n1)N(C(=O)Nc1ncccn1)[C@H]1CCN2C1)C(F)(F)F` [Example 130, (4S)—N5-(pyrimidin-2-yl)-N7-((R)-1,1,1-trifluoropropan-2-yl)-3,4-dihydro-1,4-methanopyrido[2,3-b][1,4]diazepine-5,7(2H)-dicarboxamide]: greater than 150% and “A (EC1.5<1 μM)”.
As to `C[C@@H](NC(=O)c1ccc2c(n1)N(C(=O)Nc1cc(C(=O)NCCO)ccn1)[C@H]1CCN2C1)C(F)(F)F` [Example 131, (4S)—N5-(4-((2-hydroxyethyl)carbamoyl)pyridin-2-yl)-N7-((R)-1,1,1-trifluoropropan-2-yl)-3,4-dihydro-1,4-methanopyrido[2,3-b][1,4]diazepine-5,7(2H)-dicarboxamide], under setting [1], the Emax was greater than 150%. Besides, the “TRP Activity (EC1.5, concentration of test compound that results in 150% activation of SIRT1)” value under setting [2] was “A (EC1.5<1 μM)”.
